According to ChEMBL document CHEMBL2311287, “Selective inhibition of extracellular thioredoxin by asymmetric disulfides” (J Med Chem, 2013):
Positions count from the first letter of the chain named. Activity calls are given as the source filed them. The calls are words filed in the database; no cut-off is given here.

Experiments:
[1] = test system: Transglutaminase 2 (Homo sapiens); assay: Inhibition of human recombinant thioredoxin-mediated TG2 activation expressed in T84 cells assessed as blockade of 5-biotinamidopentylamine incorporation at 25 uM after 3 hrs by fluorescence microscopic analysis
Thioredoxin = target: T1, Thioredoxin (Homo sapiens, UniProt P10599); assay: Inhibition of human recombinant thioredoxin-mediated TG2 activation expressed in T84 cells assessed as blockade of 5-biotinamidopentylamine incorporation after 3 hrs by streptavidin-HRP/TMB absorbance assay
T1 sequence (P10599 whole entry): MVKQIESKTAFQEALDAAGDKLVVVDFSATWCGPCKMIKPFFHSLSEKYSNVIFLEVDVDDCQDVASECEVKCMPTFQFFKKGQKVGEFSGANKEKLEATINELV

[2] = target: T2, Thioredoxin (Homo sapiens) (UniProt P10599); assay: Inhibition of wild type human thioredoxin by insulin turbidity assay; settings: concentration not given here
T2 sequence (whole entry): T1 sequence (P10599 whole entry)

[3] = test system: T3, Thioredoxin (Homo sapiens), P10599 [W31A]; assay: Inhibition of human thioredoxin W31A mutant
T3 sequence (whole entry): T1 sequence (P10599 whole entry) with W31A

Question: For `O=C(NC[C@@H]1CC(Br)=NO1)[C@@H]1CCCN1C(=O)OCc1cnc2ccccc2c1`, which inhibition [1] is on record?
Answer: Active

Question: `CCC(C)SSc1ncc[nH]1` (centres undefined) [PX-12] was tested. Which IC50 (Thioredoxin) did it give?
Answer: 2110 nM

Question: Which inhibition [2] does the source give for `CCC(C)SSc1nc2ccccc2[nH]1` (centres undefined) here?
Answer: 78%

Question: And the Ratio [3]?
Answer: 1.42 µM⁻¹ min⁻¹
